Measured values as given in ChEMBL document CHEMBL1131546, “Synthesis and pharmacological evaluation of benzofuran-acetamides as "antineophobic" mitochondrial DBI receptor complex ligands” (Bioorg Med Chem Lett, 1998).

What was measured:
[1] = Binding affinity was determined as the ability to displace [3H]4''CD from the (mDRC) mitochondrial DBI receptor complex using primary cultures of glial cells; parameters: species or system Rattus norvegicus
[2] = Concentration required to stimulate pregnenolone formation in the mitochondria of C6-2B glioma cells.; format: functional, Rattus norvegicus
Rattus norvegicus [3] = assay: Tested for antineophobic activity in rats using elevated maze test upon 57 umol/kg peroral administration, expressed as percent of time spent into open arms after 45 min of administration; format: functional
Rattus norvegicus [4] = assay: Tested for antineophobic activity in rats using elevated maze test upon 57 umol/kg peroral administration, expressed as number of entries into the open arms after 45 min of administration; format: functional
Rattus norvegicus [5] = assay: Tested for antineophobic activity in rats using elevated maze test upon 70 umol/kg peroral administration, expressed as number of entries into the open arms after 45 min of administration; format: functional
Rattus norvegicus [6] = assay: Tested for antineophobic activity in rats using elevated maze test upon 70 umol/kg peroral administration, expressed as percent of time spent into open arms after 45 min of administration; format: functional
Rattus norvegicus [7] = assay: Tested for antineophobic activity in rats using elevated maze test upon 53 umol/kg peroral administration, expressed as percent of time spent into open arms after 45 min of administration; format: functional
Rattus norvegicus [8] = assay: Tested for antineophobic activity in rats using elevated maze test upon 53 umol/kg peroral administration, expressed as number of entries into the open arms after 45 min of administration; format: functional
Rattus norvegicus [9] = assay: Tested for antineophobic activity in rats using elevated maze test upon 59 umol/kg peroral administration, expressed as number of entries into the open arms after 45 min of administration; format: functional
Rattus norvegicus [10] = assay: Tested for antineophobic activity in rats using elevated maze test upon 59 umol/kg po administration, expressed as percent of time spent into open arms after 45 min of administration; format: functional

Q: For `CCCCCCN(CCCCCC)C(=O)Cc1c(-c2ccc(I)cc2)oc2ccccc12`, which Ki [1] is on record?
A: The Ki was 80 nM.

Q: Which Ki [1] does the source give for `CCCCCCN(CCCCCC)C(=O)Cc1c(-c2ccc(F)cc2)[nH]c2ccccc12` here?
A: The Ki was 4.4 nM.

Q: And the EC50 [2]?
A: Its EC50 is 3 nM.

Q: And the Time (Rattus norvegicus [3])?
A: Its Time is 4.5%.

Q: What about the “No. of openarm entries” value (Rattus norvegicus [4]) of the same compound?
A: Its value is 2.1.

Q: For `CCCCCCN(CCCCCC)C(=O)Cc1c(-c2ccc(F)cc2)oc2ccccc12`, which Ki [1] is on record?
A: Its Ki is 8 nM.

Q: What about the Time (Rattus norvegicus [3]) of the same compound?
A: The Time was 5.1%.

Q: And the “No. of openarm entries” value (Rattus norvegicus [4])?
A: Its value is 2.1.

Q: With `CCCCCCN(CCCCCC)C(=O)Cc1c(-c2ccccc2)oc2ccc(Cl)cc12` as the compound, how does the Ki [1] read?
A: Its Ki is 32 nM.

Q: And the “No. of openarm entries” value (Rattus norvegicus [5])?
A: Its value is 2.1.

Q: What about the Time (Rattus norvegicus [6]) of the same compound?
A: Its Time is 4.7%.

Q: With `CCCCCCN(CCCCCC)C(=O)Cc1c(-c2ccc(N)cc2)oc2ccccc12` as the compound, how does the Ki [1] read?
A: Its Ki is 35 nM.

Q: With `CCCCCCN(CCCCCC)C(=O)Cc1c(-c2ccc(F)cc2)oc2ccc(Cl)cc12` as the compound, how does the Time (Rattus norvegicus [7]) read?
A: Its Time is 4.7%.

Q: What about the Ki [1] of the same compound?
A: The Ki was 32 nM.

Q: And the “No. of openarm entries” value (Rattus norvegicus [8])?
A: Its value is 2.3.

Q: With `CCCCCCN(CCCCCC)C(=O)Cc1c(-c2ccccc2)oc2ccccc12` as the compound, how does the “No. of openarm entries” value (Rattus norvegicus [9]) read?
A: Its value is 2.6.

Q: And the Ki [1]?
A: Its Ki is 14 nM.

Q: What about the Time (Rattus norvegicus [10]) of the same compound?
A: Its Time is 4.5%.
